Results taken from US20240402196A1 (Exact Sciences Corporation, priority 2018, published 2024).
Each block holds one molecule with its values, some of them ahead of it.

How the values were obtained:
Hb = biological target: T1, Hb (Homo sapiens, UniProt P68871+P69905); experiment: Appendix B additive screen, % Hb Recovery
T1 construct: To assess the stability of hemoglobin in stool samples, samples were exposed to simulated shipping stress conditions; from tissue; host or cells: stool samples

hemoglobin (Hb) = biological target: T2, hemoglobin (Hb) (Homo sapiens, UniProt P68871+P69905); experiment: Appendix B: additives in Hb Collection Buffer, % Hb Recovery
T2 construct: To assess the stability of hemoglobin in stool samples, samples were exposed to simulated shipping stress conditions; from tissue; host or cells: stool samples
T2 sequence (P69905 2-142 limits assumed): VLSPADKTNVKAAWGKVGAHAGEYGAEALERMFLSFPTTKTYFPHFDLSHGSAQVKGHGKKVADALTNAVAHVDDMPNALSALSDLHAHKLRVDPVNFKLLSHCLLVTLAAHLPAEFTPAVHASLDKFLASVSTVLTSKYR
T2 sequence (P68871 2-147 limits assumed): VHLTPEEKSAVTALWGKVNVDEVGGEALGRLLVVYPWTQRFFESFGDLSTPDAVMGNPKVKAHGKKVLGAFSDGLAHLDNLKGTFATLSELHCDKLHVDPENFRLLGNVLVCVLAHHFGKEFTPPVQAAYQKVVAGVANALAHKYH

[1] = biological target: T3, hemoglobin in stool samples (Homo sapiens, UniProt P68871+P69905); experiment: 3-Day shipping simulation, hemoglobin % recovery by ELISA; set-up: from tissue; host or cells: stool samples;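 further: stool samples put through shipping stress in a thermal cycler, hemoglobin quantified by ELISA before and after, stability given as post-stress % of the pre-stress level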
T3 sequence (P69905 2-142 limits assumed): as the sequence (P69905 2-142 limits assumed) above
T3 sequence (P68871 2-147 limits assumed): as the sequence (P68871 2-147 limits assumed) above

[2] = biological target: T3, hemoglobin in stool samples; experiment: Accelerated shipping simulation (35C 16 hour challenge), hemoglobin % recovery by ELISA; set-up: from tissue; host or cells: stool samples;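 further: stool hemoglobin measured by ELISA before and after thermal-cycler shipping stress, stability given as percent of pre-stress hemoglobin recovered afterwards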
[3] = biological target: T3, hemoglobin in stool samples; experiment: 7-Day shipping simulation, hemoglobin % recovery by ELISA; set-up: from tissue; host or cells: stool samples; conditions: concentrations and buffer pH 6.5 or 7.4 as in the 14th table
Description: (§1) To assess the stability of hemoglobin in stool samples, samples were exposed to simulated shipping stress conditions using a thermal cycler. […] An ELISA based detection method is used to determine the hemoglobin concentrations of samples before and after exposure to the shipping simulation. Hemoglobin stability is calculated as a % recovery of hemoglobin after the samples have been exposed to the shipping simulation.
To assess the stability of hemoglobin in stool samples beyond 3 days, a 7-Day shipping simulation was created.

[4] = biological target: T3, hemoglobin in stool samples; experiment: 3-Day extreme temperature shipping simulation, hemoglobin % recovery by ELISA; set-up: from tissue; host or cells: stool samples; conditions: concentrations and buffer pH 6.5 or 7.4 as in the 15th table
Description: as §1
As an additional challenge, a shipping simulation meant to represent a “worst case” scenario was created using extreme temperatures.

T1 sequence (P69905 2-142 limits assumed): as the sequence (P69905 2-142 limits assumed) above
T1 sequence (P68871 2-147 limits assumed): as the sequence (P68871 2-147 limits assumed) above

Molecule: O=P(O)(O)O [Sodium Phosphate]
Results (Hb): No Improvement

Molecule: NCC(=O)O [Glycine]
Results (Hb): No Improvement

Molecule: Calcium Gluconate
Results (Hb): No Improvement

Results (Hb): No Improvement
Molecule: phosphatidylcholine

Results (hemoglobin (Hb); Additive Concentration 0.05 uM): No Improvement | Results (hemoglobin (Hb); Additive Concentration 0.1 uM): No Improvement | Results (hemoglobin (Hb); Additive Concentration 1 uM): No Improvement | Results (hemoglobin (Hb); additive concentration 10 uM): No Improvement
Molecule: C=CC1=C(C)c2cc3[n-]c(cc4nc(cc5[n-]c(cc1n2)c(C)c5C=C)C(C)=C4CCC(=O)O)c(CCC(=O)O)c3C.[Cl-].[Mn+3] [Protoporphyrin IX Mangansese]

Results (hemoglobin (Hb); Additive Concentration 0.1 uM): No Improvement | Results (hemoglobin (Hb); Additive Concentration 1 uM): No Improvement | Results (hemoglobin (Hb); additive concentration 10 uM): No Improvement | Results (hemoglobin (Hb); additive concentration 25 uM): No Improvement | Results (hemoglobin (Hb); additive concentration 50 uM): No Improvement
Molecule: C=CC1=C(C)c2cc3[n-]c(cc4nc(cc5[n-]c(cc1n2)c(C)c5CCC(=O)O)C(CCC(=O)O)=C4C)c(C)c3C=C.[Mg+2] [Protoporphyrin IX Magnesium]

Results (hemoglobin (Hb); Additive Concentration 0.01%): No Improvement | Results (hemoglobin (Hb); Additive Concentration 0.01% + 10 mM): No improvement | Results (hemoglobin (Hb); Additive Concentration 0.10%): No Improvement | Results (hemoglobin (Hb); Additive Concentration 0.1% + 10 mM): No improvement | Results (hemoglobin (Hb); Additive Concentration 1%): No Improvement | Results (hemoglobin (Hb); Additive Concentration 1% + 10 mM): No improvement
Molecule: O=C(O)[C@H]1OC(O)[C@H](O)[C@@H](O)[C@H]1O (some centres unmarked) [Galaturonic Acid]

Molecule: [Cl-].[K+] [Potassium Chloride]
Results (Hb): No Improvement

Molecule: Sodium hydroxylmethyl glycinate
Results (Hb): No Improvement

Molecule: C[N+](C)(C)[O-] [Trimethylamine N-oxide (TMANO)]
Results ([1]; additive concentration 1.1M): Slight Improvement | Results ([1]; additive concentration 2.15M): Slight Improvement | Results ([1]; additive concentration 3M): No Improvement | Results ([1]; additive concentration 3.5M): No Improvement | Results ([1]; additive concentration 4M): No Improvement | Results ([2]; additive concentration 500 uM): No Improvement | Results ([2]; additive concentration 5 mM): No Improvement | Results ([2]; additive concentration 50 mM): No Improvement | Results ([2]; additive concentration 87 mM): No Improvement | Results (Hb): No Improvement

Molecule: N.N.O=S(=O)(O)O [Ammonium Sulfate]
Results (Hb): No Improvement

Molecule: CC(=O)[O-].[Na+] [Sodium Acetate]
Results (Hb): No Improvement

Molecule: N.N.O=C(O)C(=O)O [Ammonium Oxalate]
Results (Hb): No Improvement

Molecule: CCn1cc[n+](C)c1.[Cl-] [1-ethyl-3-methylimidazolium chloride]
Results (Hb): No Improvement

Molecule: O=S([O-])O.[Na+] [Sodium Bisulfite]
Results (Hb): No Improvement

Molecule: Magnesium Gluconate
Results ([1]; additive concentration 5 mM): Magnesium Cation shows | Results ([1]; additive concentration 10 mM): Magnesium Cation shows | Results ([1]; additive concentration 20 mM): Magnesium Cation shows | Results ([1]; additive concentration 30 mM): Magnesium Cation shows | Results ([1]; additive concentration 40 mM): Magnesium Cation shows | Results ([1]; additive concentration 50 mM): Magnesium Cation shows | Results ([2]; additive concentration 1.2 uM): No Improvement | Results ([2]; additive concentration 12 uM): No Improvement | Results ([2]; additive concentration 120 uM): No Improvement | Results (Hb): No Improvement

Molecule: [Cl-].[Li+] [Lithium Chloride]
Results (Hb): No Improvement

Notes (Hb stability vs Hb Collection Buffer) [3]: Improved | Notes (Hb stability vs Hb Collection Buffer) ([1]; concentrations and buffer pH 6.5 or 7.4 as in the 13th table): Improved | Results ([2]; additive concentration 0.0003%, pH 6.5): Improvement | Results ([2]; additive concentration 0.0003%; pH 6.4): Improvement in % Hb | Results ([2]; additive concentration 0.0003%; pH 6.5): Improvement in % Hb | Results ([2]; additive concentration 0.0003%; pH 6.6): Improvement in % Hb | Results ([2]; additive concentration 0.0003%; pH 6.7): Improvement in % Hb | Results ([2]; additive concentration 0.0003%; pH 6.8): Improvement in % Hb | Results ([2]; additive concentration 0.0003%; pH 6.9): Improvement in % Hb | Results ([2]; additive concentration 0.0003%; pH 7.0): Improvement in % Hb | Results ([2]; additive concentration 0.0003%; pH 7.1): Improvement in % Hb | Results ([2]; additive concentration 0.0003%; pH 7.2): Improvement in % Hb | Results ([2]; additive concentration 0.0003%; pH 7.3): Improvement in % Hb | Results ([2]; additive concentration 0.0003%; pH 7.4): Improvement in % Hb | Results ([2]; additive concentration 0.0003%; pH 7.5): Improvement in % Hb | Notes (Hb stability vs Hb Collection Buffer) [4]: Improved
Molecule: C=CC1=C(C)c2cc3[n-]c(cc4[n-]c(cc5nc(cc1n2)C(C)=C5C=C)c(C)c4CCC(=O)O)c(CCC(=O)O)c3C.[Cl-].[Fe+3] [Hemin]

Results (hemoglobin (Hb); Additive Concentration 0%): No Improvement | Results (hemoglobin (Hb); Additive Concentration 0.50%): No Improvement | Results (hemoglobin (Hb); Additive Concentration 1%): No Improvement | Results (hemoglobin (Hb); Additive Concentration 5%): No Improvement | Results (hemoglobin (Hb); Additive Concentration 10%): No Improvement
Molecule: BSA, pH 6.5

Molecule: CCCCCCn1cc[n+](C)c1.[Cl-] [1-hexyl-3-methylimidazolium chloride]
Results (Hb): No Improvement

Results (hemoglobin (Hb); Additive Concentration 0.00%): Improvement in % Hb | Results (hemoglobin (Hb); additive concentration 0.0003%): Improvement in % Hb
Molecule: C=CC1=C(C)c2cc3[n-]c(cc4nc(cc5[n-]c(cc1n2)c(C)c5C=C)C(C)=C4CCC(=O)O)c(CCC(=O)O)c3C.[Cl-].[Fe+3] [Hemin, pH 6.5]

Molecule: O=C([O-])c1ccccc1.[Na+] [Sodium Benzoate]
Results ([1]; Additive Concentration 0.03%): No improvement | Results ([1]; Additive Concentration 0.04%): No improvement | Results ([1]; Additive Concentration 0.05%): No improvement | Results ([1]; Additive Concentration 0.06%): No improvement | Results ([1]; Additive Concentration 0.10%): No improvement | Results ([1]; Additive Concentration 0.50%): No improvement | Results ([1]; Additive Concentration 1%): No improvement | Results (Hb): No Improvement

Results (hemoglobin (Hb); Additive Concentration 0.1 uM): No Improvement | Results (hemoglobin (Hb); Additive Concentration 1 uM): No Improvement | Results (hemoglobin (Hb); additive concentration 10 uM): No Improvement
Molecule: C=CC1=C(C)c2cc3[n-]c(cc4nc(cc5[n-]c(cc1n2)c(C)c5C=C)C(C)=C4CCC(=O)O)c(CCC(=O)O)c3C.[Cu+2] [Protoporphyrin IX Copper]

Molecule: O=C([O-])O.[Na+] [Sodium Bicarbonate]
Results ([2]; additive concentration 0.0000895 mM): No Improvement | Results ([2]; additive concentration 0.000895 mM): No Improvement | Results ([2]; additive concentration 0.00895 mM): No Improvement | Results ([2]; additive concentration 0.0895 mM): No Improvement | Results ([2]; additive concentration 0.895 mM): No Improvement | Results ([2]; additive concentration 8.95 mM): No Improvement | Results (Hb): No Improvement

Molecule: OCCO [Ethylene Glycol]
Results (Hb): No Improvement

Molecule: CC(=O)[O-].[K+] [Potassium Acetate]
Results (Hb): No Improvement

Molecule: O.O.[Ca+2].[Cl-].[Cl-] [Calcium Chloride (dihydrate)]
Results (Hb): Calcium cation shows

Molecule: [O-][Cl+3]([O-])([O-])O [Sodium Perchlorate]
Results (Hb): No Improvement

Results (Hb): No Improvement
Molecule: C=CC1=C(C)c2cc3[n-]c(cc4nc(cc5[n-]c(cc1n2)c(C)c5C=C)C(C)=C4CCC(=O)O)c(CCC(=O)O)c3C.[Zn+2] [Protoprophyrin IX Zn]

Results (hemoglobin (Hb); Additive Concentration 0.1 uM): No Improvement | Results (hemoglobin (Hb); Additive Concentration 1 uM): No Improvement | Results (hemoglobin (Hb); additive concentration 10 uM): No Improvement
Molecule: C=CC1=C(C)c2cc3[n-]c(cc4nc(cc5[n-]c(cc1n2)c(C)c5C=C)C(C)=C4CCC(=O)O)c(CCC(=O)O)c3C.[Cl-].[Cl-].[Sn+4] [Protoporphyrin IX Tin]

Molecule: [Br-].[Na+] [Sodium Bromide]
Results (Hb): No Improvement

Molecule: Cl.N [Ammonium Chloride]
Results (Hb): No Improvement

Results (Hb): No Improvement
Molecule: [Cl][Fe][Cl] [Iron (2) Chloride]

Molecule: [Cl-].[Cl-].[Mg+2] [Magnesium Chloride]
Results ([1]; additive concentration 5 mM): Magnesium Cation shows | Results ([1]; additive concentration 10 mM): Magnesium Cation shows | Results ([1]; additive concentration 20 mM): Magnesium Cation shows | Results ([1]; additive concentration 30 mM): Magnesium Cation shows | Results ([1]; additive concentration 40 mM): Magnesium Cation shows | Results ([1]; additive concentration 50 mM): Magnesium Cation shows | Results (Hb): Magnesium Cation shows

Molecule: CC(=O)O.N [Ammonium Acetate]
Results (Hb): No Improvement

Results (Hb): No Improvement
Molecule: O=[N+]([O-])C1(Br)COCOC1 [5-bromo-5-nitro-1,3-dioxane]

Molecule: Cl.Cn1sccc1=O [2-methyl-4-isothiazolin-3-one-hydrochloride]
Results (Hb): No Improvement

Molecule: O=C([O-])[O-].[Na+].[Na+] [Sodium Carbonate]
Results (Hb): No Improvement

Molecule: [Ca+2].[Cl-].[Cl-] [Calcium Chloride (anhydrous)]
Results (Hb): Calcium cation shows

Molecule: [Ca+2].[Cl-].[Cl-] [Calcium Chloride, pH 6.5]
Results (hemoglobin (Hb); Additive Concentration 10 mM): No Improvement
